Measured values taken from patent US8575208B2, “Inhibitors of serine proteases” (priority 2007, dated 2013).

Target: T1, HCV NS3 serine protease (UniProt Q9WMX2)
T1 construct: fused on or other part: Assay 1: C-terminal hexa-histidine tag
Assay: HCV enzymatic assay (HCV NS3 peptide cleavage assays, apparent Ki)
Type: biochemical, hepatitis C virus
Conditions: serine protease activity measured using the HCV Enzyme Assays; Assay No. 1 / Assay No. 2 not given
Procedure: This assay is a modification of that described by Landro, et al. (Landro J A, Raybuck S A, Luong Y C, O'Malley E T, Harbeson S L, Morgenstern K A, Rao G and Livingston D L. Biochemistry 1997, 36, 9340-9348), and uses a peptide substrate (NS5AB), based on the NS5A/NS5B cleavage site for genotype la HCV. The substrate stock solution (25 mM) was prepared in DMSO containing 0.2 M DTT and stored at −20° C. A synthetic peptide cofactor (KK4A) was used as a substitute for the central core region of NS4A. The reaction was performed in a 96-well microtiter plate format using 25 ηM to 50 ηM HCV NS3 protease domain in buffer containing 50 mM HEPES pH 7.8, 100 mM NaCl, 20% glycerol, 5 mM DTT and 25 μM KK4A. The final DMSO concentration was no greater than 2% v/v. Reactions were quenched by addition of trifluoroacetic acid (TFA) to yield a final concentration of 2.5%.
The SMSY product was separated from substrate and KK4A using a microbore separation method. The instrument used was a Agilent 1100 with a G1322A degasser, either a G1312A binary pump or a G1311A quaternary pump, a G1313A autosampler, a G1316A column thermostated chamber and a G1315A diode array detector. The column was a Phenomenex Jupiter, 5 μm C18, 300 Å, 150×2 mm, P/O 00F-4053-B0, with a flow-rate of 0.2 mL/min. The column thermostat was at 40° C. Mobile phases were HPLC grade H2O/0.1% TFA (solvent A) and HPLC grade CH3CN/0.1% TFA (solvent B). The SMSY product peak was quantitated using the data collected at […].
This assay follows the cleavage of a peptide substrate by full-length hepatitis C viral protein NS3•4A. One of three peptide substrates based on the NS5A/NS5B cleavage site for genotype 1a HCV is used to measure enzyme activity. All substrate stock solutions (25 mM) were prepared in DMSO containing 0.2M DTT and stored at −20° C. A synthetic peptide cofactor (NS4A Peptide) was used to supplement NS4A. Peptide sequences are shown below. The hydrolysis reaction was performed in a 96-well microtiter plate format using 100 ηM to 125 ηM HCV NS3•4A in buffer containing 50 mM HEPES pH 7.8, 100 mM NaCl, 20% glycerol, 5 mM DTT and 25 μM NS4A Peptide. The final DMSO concentration was no greater than 2% v/v. Reactions using NS5AB or NS5AB-EDANS as substrate were quenched by the addition of 10% trifluoroacetic acid (TFA) to yield a final TFA concentration of 2.5%. Reactions using FITC-NS5AB-1 as substrate were quenched by the addition of 0.4M formic acid to yield a final concentration of 0.08M acid.
Enzymatic activity was assessed by separation of substrate and products by reverse phase HPLC. The instrument used was a Agilent 1100 with a G1322A degasser, either a G1312A binary pump or a G1311A quaternary pump, a G1313A autosampler, a G1316A column thermostated chamber, a G1321A fluorescence detector and a G1315A diode array detector. The column thermostat was at 40° C. For substrate NS5AB the column was a Phenomenex Jupiter, 5 μm C18, 300 Å, 150×2 mm, P/O 00F-4053-B0, with a flow-rate of 0.2 mL/min using HPLC grade H2O/0.1% TFA (solvent A) and HPLC grade CH3CN/0.1% TFA (solvent B) as mobile phases. The C-terminal product peak (NH2-SMSY-COOH) was quantitated using the absorbance data collected at 210 ηm. For substrate NS5AB-EDANS the column was a Phenomenex Aqua, 5 μm C18, 125 Å, 50×4.6 mm, P/O 00B-4299-E0, with a flow-rate of 1.0 mL/min using HPLC grade H2O/0.1% TFA (solvent A) and HPLC grade CH3CN/0.1% TFA (solvent B) as mobile phases. The C-terminal product peak (NH2-SMSYT-Asp(EDANS)-KKK-COOH) was quantitated using the fluorescence data collected at 350 ηm excitation/490 ηm emission. For substrate FITC-NS5AB-1 the column was a Phenomenex Prodigy, 5 μm ODS(2), 125 Å, 50×4.6 mm, P/O 00B-3300-E0, with a flow-rate of 1.0 mL/min using 10 mM sodium phosphate pH 7.0 in HPLC grade H2O (solvent A) and 65% HPLC Grade CH3CN/35% 10 mM sodium phosphate pH 7.0 in HPLC grade H2O (solvent B) as mobile phases. […]

T1 sequence (Q9WMX2 1027-1657): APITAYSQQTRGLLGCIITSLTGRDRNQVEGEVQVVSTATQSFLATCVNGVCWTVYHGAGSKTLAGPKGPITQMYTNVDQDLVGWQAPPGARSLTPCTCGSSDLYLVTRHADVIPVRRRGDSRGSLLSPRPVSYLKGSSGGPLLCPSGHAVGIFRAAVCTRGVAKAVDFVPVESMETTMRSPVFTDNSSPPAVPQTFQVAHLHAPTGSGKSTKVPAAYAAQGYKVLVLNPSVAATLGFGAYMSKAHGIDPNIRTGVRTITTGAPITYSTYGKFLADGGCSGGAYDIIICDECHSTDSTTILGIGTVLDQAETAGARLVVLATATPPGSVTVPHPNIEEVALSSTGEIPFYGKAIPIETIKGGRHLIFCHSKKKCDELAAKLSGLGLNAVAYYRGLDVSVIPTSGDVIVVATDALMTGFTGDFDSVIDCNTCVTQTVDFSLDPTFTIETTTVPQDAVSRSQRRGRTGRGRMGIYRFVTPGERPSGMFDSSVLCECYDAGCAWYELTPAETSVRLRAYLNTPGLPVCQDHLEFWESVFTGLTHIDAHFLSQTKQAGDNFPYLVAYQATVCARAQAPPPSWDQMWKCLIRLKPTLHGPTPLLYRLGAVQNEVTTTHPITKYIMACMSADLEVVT

CCC[C@H](NC(=O)[C@@H]1C[C@@]2(CC(=O)N(c3cccc(Cl)c3)C2)CN1C(=O)[C@@H](NC(=O)CC1CCCCC1)C(C)(C)C)C(=O)C(=O)NC1CC1 [compound 2]
Ki: > 700 nM

CCC[C@H](NC(=O)[C@@H]1C[C@]2(CC(=O)N(c3cccc(Cl)c3)C2)CN1C(=O)[C@@H](NC(=O)CC1CCCCC1)C(C)(C)C)C(=O)C(=O)NC1CC1 [compound 6]
Ki: 410 to 700 nM

CCC[C@H](NC(=O)[C@@H]1C[C@@]2(CC(=O)N(c3ccccc3)C2)CN1C(=O)[C@@H](NC(=O)OC1CCCC1)C(C)(C)C)C(=O)C(=O)NC1CC1 [compound 1, Cyclopentyl-(S)-1-((3S,5R)-3-((S)-1-(cyclopropylamino)-1,2-dioxohexan-3-ylcarbamoyl)-8-oxo-7-phenyl-2,7-diazaspiro[4.4]nonan-2-yl)-3,3-dimethyl-1-oxobutan-2-ylcarbamate]
Ki: 410 to 700 nM

CCC[C@H](NC(=O)[C@@H]1C[C@]2(CN(c3ccccc3)C(=O)O2)CN1C(=O)[C@@H](NC(=O)CC1CCCCC1)C(C)(C)C)C(=O)C(=O)NC1CC1 [compound 5, (5R,8S)-7-((S)-2-(2-cyclohexylacetamido)-3,3-dimethylbutanoyl)-N-((S)-1-(cyclopropylamino)-1,2-dioxohexan-3-yl)-2-oxo-3-phenyl-1-oxa-3,7-diazaspiro[4.4]nonane-8-carboxamide]
Ki: > 700 nM

CCC[C@H](NC(=O)[C@@H]1C[C@]2(CC(=O)N(c3ccccc3)C2)CN1C(=O)[C@@H](NC(=O)OC1CCCC1)C(C)(C)C)C(=O)C(=O)NC1CC1 [compound 4, cyclopentyl (S)-1-((3S,5S)-3-((S)-1-(cyclopropylamino)-1,2-dioxohexan-3-ylcarbamoyl)-8-oxo-7-phenyl-2,7-diazaspiro[4.4]nonan-2-yl)-3,3-dimethyl-1-oxobutan-2-ylcarbamate]
Ki: < 410 nM

CCC[C@H](NC(=O)[C@@H]1C[C@@]2(CN(c3cccc(Cl)c3)C(=O)O2)CN1C(=O)[C@@H](NC(=O)OC1CCCC1)C(C)(C)C)C(=O)C(=O)NC1CC1 [compound 7, Cyclopentyl (S)-1-((5S,8S)-3-(3-chlorophenyl)-8-((S)-1-(cyclopropylamino)-1,2-dioxohexan-3-ylcarbamoyl)-2-oxo-1-oxa-3,7-diazaspiro[4.4]nonan-7-yl)-3,3-dimethyl-1-oxobutan-2-ylcarbamate]
Ki: < 410 nM
